In patent US6806230B1, “Pyrimidine derivatives and herbicides containing them” (Kumiai Chemical Industry Co., Ltd., priority 1999, dated 2004):

Experiments:
Format in all cases: in vivo
barnyard grass (Ec) [1] = assay: Test Example 3: herbicidal effects by foliage treatment in upland field; set-up: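 0-5 growth inhibition grade; 5 = over 90%; 4 = 70-90%; 3 = 50-70%; 2 = 30-50%; 1 = 10-30%; 0 = under 10%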; settings: dose 100 g active ingredient per 10 ares, examined on the 14th day after treatment
Description: In a 80 cm^2 plastic pot, upland soil was filled, and seeds of barnyard grass (Ec) and green foxtail (Se) were sown and cultured in a green house for 2 weeks. Then, a wettable powder prepared in accordance with Formulation Example 1 was diluted with water and applied to the entire foliage from above the plants by means of a small size spray at a rate of 100 l per 10 ares so that the dose of the active ingredient would be 100 g per 10 ares. Thereafter, cultivation was carried out in a green house, and on the 14th day after the treatment, the herbicidal effects were examined in accordance with the standards of Table 44.

barnyard grass (Ec) [2] = assay: Test Example 2: herbicidal effects by upland soil treatment; set-up: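 0-5 growth inhibition grade; 5 = over 90%; 4 = 70-90%; 3 = 50-70%; 2 = 30-50%; 1 = 10-30%; 0 = under 10%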; settings: dose 100 g active ingredient per 10 ares, examined on the 21st day after treatment
How it was run: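 Pre-emergence test: barnyard grass and green foxtail sown in upland soil, then soil surface sprayed with wettable-powder formulation at 100 g active ingredient per 10 ares (100 l per 10 ares). Grown in greenhouse; herbicidal effect scored on a rating scale 21 days after treatment.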

barnyard grass (Eo) [3] = assay: Test Example 1: herbicidal effects by flooded paddy field treatment; set-up: herbicidal effects, Eo (barnyard grass):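 0-5 growth inhibition grade; 5 = over 90%; 4 = 70-90%; 3 = 50-70%; 2 = 30-50%; 1 = 10-30%; 0 = under 10%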; settings: for herbicidal effects, Eo (barnyard grass): dose 100 g active ingredient per 10 ares, examined on the 21st day after treatment, standards of Table 44;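 for Herbicidal effect index, Eo: 0-5 growth inhibition grade; 5 = over 90%; 4 = 70-90%; 3 = 50-70%; 2 = 30-50%; 1 = 10-30%; 0 = under 10%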
How it was run: (§1)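 Flooded paddy pre-emergence test: sowing into puddled soil under 3 cm water, then dropwise water-surface treatment the following day with diluted wettable powder at 100 g active ingredient per 10 ares. Greenhouse cultivation followed, and weeds were rated against a standard scale at 21 days.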

monochoria (Mo) [4] = assay: as above; set-up: herbicidal effects, Mo (monochoria):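 0-5 growth inhibition grade; 5 = over 90%; 4 = 70-90%; 3 = 50-70%; 2 = 30-50%; 1 = 10-30%; 0 = under 10%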; settings: for herbicidal effects, Mo (monochoria): dose 100 g active ingredient per 10 ares, examined on the 21st day after treatment, standards of Table 44
How it was run: as §1

barnyard grass (Eo) [5] = assay: Test Example 4: selectivity for a crop plant by flooded paddy field treatment; set-up: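 0-5 growth inhibition grade; 5 = over 90%; 4 = 70-90%; 3 = 50-70%; 2 = 30-50%; 1 = 10-30%; 0 = under 10%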; settings: barnyard grass, dose 25 gai/10a, 21st day after treatment, index per Table 44
How it was run: (§2)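 Steps: fill pot with paddy soil and puddle; sow weed seeds; transplant rice at second-leaf stage; flood to 3 cm. Next day, drip the water-diluted wettable powder onto the water (25 g a.i./10 ares). Grow in greenhouse and rate herbicidal effect on day 21.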

monochoria (Mo) [6] = assay: as above; set-up: scale not given here; settings: monochoria, dose 25 gai/10a, 21st day after treatment, index per Table 44
How it was run: as §2

rice (Or) = assay: as above; set-up: scale not given here; settings: rice transplanted at second leaf stage, dose 25 gai/10a, 21st day after treatment, index per Table 44
How it was run: as §2

[7] = dose 100 gai/10a, examined on 21st day after treatment, index 0-5 per Table 44
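Throughout, for Herbicidal effect index, Mo: 0-5 growth inhibition grade; 5 = over 90%; 4 = 70-90%; 3 = 50-70%; 2 = 30-50%; 1 = 10-30%; 0 = under 10%.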

Row | Compound | Ec (herbicidal effects, index) (barnyard grass (Ec) [1]) | Ec (herbicidal effects, index) (barnyard grass (Ec) [2]) | herbicidal effects, Eo (barnyard grass) (barnyard grass (Eo) [3]) | herbicidal effects, Mo (monochoria) (monochoria (Mo) [4]) | Eo (herbicidal effect index) (barnyard grass (Eo) [5]) | Mo (herbicidal effect index) (monochoria (Mo) [6]) | Or (herbicidal effect index on crop) (rice (Or)) | Herbicidal effect index, Eo (barnyard grass (Eo) [3]; [7]) | Herbicidal effect index, Mo (monochoria (Mo) [4]; [7])
1 | CC(C(=O)N(C)C(c1cncnc1C#N)C(C)C)c1ccc(Cl)cc1 (mixture of isomers) [1-508] | 4 | 5 |  |  |  |  |  |  | 
2 | COCC(c1cncnc1C(C)C)N(C)C(=O)C(C)c1ccc(Cl)cc1 (mixture of isomers) [1-586] | 5 | 5 | 5 | 5 |  |  |  |  | 
3 | CCC(C)C(c1cncnc1C(F)(F)F)N(C)C(=O)Cc1cccs1 (mixture of isomers) [2-11] | 5 | 5 | 5 | 5 |  |  |  |  | 
4 | CCC(C)C(c1cncnc1C(F)(F)F)N(C)C(=O)Cc1ccsc1 (mixture of isomers) [2-12] | 5 | 5 | 5 | 5 |  |  |  |  | 
5 | Cc1ccc(C(C)C(=O)N(C)C(c2cncnc2C(F)(F)F)C(C)C)s1 (mixture of isomers) [2-60] | 4 | 5 | 5 | 5 |  |  |  |  | 
6 | CC(C(=O)N(C)C(c1cncnc1C(F)(F)F)C(C)C)c1ccc(Br)s1 (mixture of isomers) [2-61] | 4 | 5 | 5 | 5 |  |  |  |  | 
7 | CC(C(=O)N(C)C(c1cncnc1C(F)(F)F)C(C)C)c1cccs1 (mixture of isomers) [2-62] | 4 | 5 | 5 | 5 |  |  |  |  | 
8 | CCC(C)C(c1cncnc1C(F)(F)F)N(C)C(=O)Cc1cccc(F)c1 (mixture of isomers) [Compound 1-267] | 4 | 5 | 5 | 5 |  |  |  |  | 
9 | CC(C)CC(c1cncnc1C(F)(F)F)N(C)C(=O)Cc1ccccc1 (racemic) [1-330] | 4 | 5 | 5 | 5 |  |  |  |  | 
10 | C#CCN(C(=O)Cc1ccc(F)cc1)C(c1cncnc1CCC)C(C)C (racemic) [1-617] | 4 | 5 |  |  |  |  |  |  | 
11 | C#CCN(C(=O)Cc1ccc(C)cc1)C(c1cncnc1CCC)C(C)C (racemic) [1-619] | 4 | 5 |  |  |  |  |  |  | 
12 | C#CCN(C(=O)Cc1ccc(F)cc1)C(c1cncnc1C(C)C)C(C)C (racemic) [1-622] | 4 | 4 |  |  |  |  |  |  | 
13 | CCc1ncncc1C(C(C)C)N(C)C(=O)Oc1ccc(Cl)cc1 (racemic) [1-642] | 4 | 4 |  |  |  |  |  |  | 
14 | CCOc1ncncc1C(C(C)C)N(C)C(=O)Cc1ccc(Cl)cc1 (racemic) [1-661] | 5 |  |  |  |  |  |  |  | 
15 | CN(C(=O)Cc1cccs1)C(c1ccccc1)c1cncnc1C(F)(F)F (racemic) [2-19] |  | 5 | 5 | 5 | 5 | 5 | 1 |  | 
16 | CN(C(=O)Cc1ccsc1)C(c1ccccc1)c1cncnc1C(F)(F)F (racemic) [2-20] |  | 5 | 5 | 5 | 5 | 5 | 1 |  | 
17 | CN(C(=O)Cc1ccc(Cl)s1)C(c1ccccc1)c1cncnc1C(F)(F)F (racemic) [2-31] |  | 5 | 5 | 5 | 5 | 5 | 0 |  | 
18 | Cc1ccc(CC(=O)N(C)C(c2ccccc2)c2cncnc2C(F)(F)F)s1 (racemic) [2-32] |  | 5 | 5 | 5 | 5 | 5 | 1 |  | 
19 | CN(C(=O)Cc1cccs1)C(c1cncnc1C(F)(F)F)C1(C)CC1 (racemic) [2-55] |  | 5 | 5 | 5 | 5 | 5 | 1 |  | 
20 | CN(C(=O)Cc1ccsc1)C(c1cncnc1C(F)(F)F)C1(C)CC1 (racemic) [2-56] |  | 5 | 5 | 5 | 5 | 5 | 1 |  | 
21 | CN(C(=O)Cc1ccc(Cl)s1)C(c1cncnc1C(F)(F)F)C1(C)CC1 (racemic) [2-58] |  | 5 | 5 | 5 | 5 | 5 | 1 |  | 
22 | C#CCN(C(=O)Cc1ccc(Cl)s1)C(c1cncnc1CC)C(C)C (racemic) [2-73] |  | 5 | 5 | 5 | 5 | 5 | 1 |  | 
23 | C#CCN(C(=O)Cc1ccsc1)C(c1cncnc1C(F)(F)F)C(C)C (racemic) [2-78] |  | 5 | 5 | 5 | 5 | 5 | 1 |  | 
24 | C#CCN(C(=O)Cc1ccsc1)C(c1cncnc1C(C)C)C(C)C (racemic) [2-79] | 4 | 5 |  |  |  |  |  |  | 
25 | CC(C)C(c1cncnc1C(F)(F)F)N(C)S(=O)(=O)c1ccc(Cl)cc1 (racemic) [4-1] |  | 5 | 5 | 5 | 5 | 5 | 1 |  | 
26 | O=C(Cc1ccccc1)NC(c1cncnc1C(F)(F)Cl)C1CC1 (racemic) [Compound 1-1] | 4 |  |  |  |  |  |  |  | 
27 | CCCC(c1cncnc1C(F)(F)F)N(C)C(=O)Cc1ccccc1 (racemic) [Compound 1-111] | 4 |  |  |  |  |  |  | 5 | 4
28 | CC(C)c1ncncc1C(C(C)C)N(C)C(=O)Cc1ccc(F)cc1 (racemic) [Compound 1-129] | 5 |  | 5 | 5 |  |  |  |  | 
29 | CN(C(=O)Cc1ccc(Cl)cc1F)C(c1ccccc1)c1cncnc1C(F)(F)F (racemic) [Compound 1-250] |  | 4 | 5 | 5 | 5 | 5 | 1 |  | 
